For 24 compounds, EC50 results are on record in patent publication US8034822B2, “Glucokinase activators” (Takeda San Diego, Inc., priority 2006, dated 2011).

Structures are written as SMILES.

The target in the experiment is T1, glucokinase (GK) (Homo sapiens, UniProt P35557).
T1 construct: I.D. No. 1 corresponds to residues 12-465 of glucokinase; made in house; host or cells: E. coli DH10b-T1r, pFLAG-CTC plasmid
T1 sequence (P35557 with tags, fused parts or gaps isoform P35557-2): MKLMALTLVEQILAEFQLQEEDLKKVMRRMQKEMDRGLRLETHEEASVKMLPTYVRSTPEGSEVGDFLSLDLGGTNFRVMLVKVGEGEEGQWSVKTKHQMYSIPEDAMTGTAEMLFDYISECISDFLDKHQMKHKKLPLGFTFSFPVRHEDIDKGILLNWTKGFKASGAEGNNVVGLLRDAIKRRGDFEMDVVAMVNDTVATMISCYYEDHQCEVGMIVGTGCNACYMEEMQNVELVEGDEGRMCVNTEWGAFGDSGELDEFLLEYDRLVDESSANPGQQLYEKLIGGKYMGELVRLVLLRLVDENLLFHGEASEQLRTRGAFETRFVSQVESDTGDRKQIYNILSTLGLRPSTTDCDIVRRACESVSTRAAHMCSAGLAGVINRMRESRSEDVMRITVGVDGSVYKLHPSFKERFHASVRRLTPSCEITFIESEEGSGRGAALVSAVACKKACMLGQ
Nature of the experiment: enzymatic glucokinase activity assay (ATP consumption, KinaseGlo luminescence). Type of experiment: biochemical. To be noted: Against GK; Kact = concentration giving 50% of maximal increase in GK activity; 5 μM ATP, 5 mM Glucose, 60 min room temperature; values given as bins; read-out: pKact. From the text:
The activity of compounds as glucokinase activators may be assayed in vitro, in vivo or in a cell line. Provided below is an enzymatic glucokinase activity assay.
Purified glucokinase may be obtained as follows. DNA encoding residues 12-465 of the full-length sequence of the human enzyme may be amplified by PCR and cloned into the HindIII and EcoRI sites of pFLAG-CTC (Sigma). SEQ. I.D. No. 1 corresponds to residues 12-465 of glucokinase.
The expression of recombinant glucokinase protein may be carried out by transformation and growth of DH10b-T1r E. coli cells incorporating the (pFLAG-CTC) plasmid in LB media. Protein expression can be induced in this system by the addition of IPTG to the culture medium.
Recombinant protein may be isolated from cellular extracts by passage over Sepharose Q Fast Flow resin (Pharmacia). This partially purified GK extract may then be further purified by a second passage over Poros HQ10 (Applied Biosystems). The purity of GK may be determined on denaturing SDS-PAGE gel. Purified GK may then be concentrated to a final concentration of 20.0 mg/ml. After flash freezing in liquid nitrogen, the proteins can be stored at −78° C. in a buffer containing 25 mM TRIS-HCl pH 7.6, 50 mM NaCl, and 0.5 mM TCEP.
The activation properties of compounds for GK may be determined using a black 384-well-plate format under the following reaction conditions: 25 mM Hepes pH 7.2, 25 mM NaCl, 10 mM MgCl2, 0.01% Brij35, 1 mM DTT, 5 μM ATP, 5 mM Glucose 2% DMSO. The amount of ATP consumed may be determined quantitatively by addition of equal volume of luciferase reagent (luciferase+beetle luciferin—KinaseGlo Luminescent Kinase Assay kit from Promega). The luminescence intensity may be measured by using the Analyst HT from LJL Biosystems.
The assay reaction may be initiated as follows: 4 μl of substrate mixture (12.5 μM ATP and 12.5 mM Glucose) was added to each well of the plate, followed by the addition of 2 μl of activator (2 fold serial dilutions for 11 data points for each activator) containing 10% DMSO. 4 μL of 1.25 nM GK solution may be added to initiate the reaction. The reaction mixture may then be incubated at room temperature for 60 min, and quenched and developed by addition of 10 μL of luciferase reagent. Luminescence intensities of the resulting reaction mixtures may be measured after a 10 min incubation at room temperature. The luminescence intensity may be measured by using the Analyst HT from LJL Biosystems.
pKact and % ACTmax values may be calculated by non-linear curve fitting of the compound concentrations and luminescence intensities to a standard inhibition/activation equation.
Consider `CS(=O)(=O)c1ccc2c(=O)n(C(CC3CCCCC3)C(=O)Nc3ccccn3)cnc2c1` (stereo not drawn) [Compound 60, 3-Cyclohexyl-2-(7-methanesulfonyl-4-oxo-4H-quinazolin-3-yl)-N-pyridin-2-yl-propionamide], for which the EC50 was at least 2000 nM.
For `CS(=O)(=O)c1ccc2c(=O)n(C(CC3CCCCC3)C(=O)Nc3ccc(F)cn3)cnc2c1` (stereo not drawn) [Compound 70, 3-Cyclohexyl-N-(5-fluoro-pyridin-2-yl)-2-(7-methanesulfonyl-4-oxo-4H-quinazolin-3-yl)-propionamide] the value was at least 2000 nM; for `O=C(Nc1ncc(Cl)s1)C(CC1CCCCC1)n1cnc2ccc(Cl)cc2c1=O` (stereo not drawn) [Compound 47, 2-(6-Chloro-4-oxo-4H-quinazolin-3-yl)-N-(5-chloro-thiazol-2-yl)-3-cyclohexyl-propionamide], 1000 to 1580 nM.
Turning to `CS(=O)(=O)c1ccc2c(=O)n(C(CC3CCCCC3)C(=O)Nc3ncc(Cl)s3)c(=O)[nH]c2c1` (stereo not drawn) [Compound 55, N-(5-Chloro-thiazol-2-yl)-3-cyclohexyl-2-(7-methanesulfonyl-2,4-dioxo-1,4-dihydro-2H-quinazolin-3-yl)-propionamide], the EC50 lay in the range of 501 to 794 nM.
For `O=C(NC1CC1)c1ccc2c(=O)n(C(CC3CCOCC3)C(=O)Nc3ncc(Cl)s3)cnc2c1` (stereo not drawn) [Compound 180, 3-(1-(5-chlorothiazol-2-ylamino)-1-oxo-3-(tetrahydro-2H-pyran-4-yl)propan-2-yl)-N-cyclopropyl-4-oxo-3,4-dihydroquinazoline-7-carboxamide] the value was at least 2000 nM; for `O=C(Nc1ncc(Cl)s1)C(CC1CCCCC1)n1cnc2c(C(F)(F)F)cccc2c1=O` (stereo not drawn) [Compound 142, N-(5-chlorothiazol-2-yl)-3-cyclohexyl-2-(4-oxo-8-(trifluoromethyl)-quinazolin-3(4H)-yl)propanamide], at least 2000 nM.
In the case of `COC(=O)c1ccc(NC(=O)[C@@H](CC2CCCCC2)n2cnc3c(C(F)(F)F)cccc3c2=O)nc1` [Compound 211, (R)-methyl 6-(3-cyclohexyl-2-(4-oxo-8-(trifluoromethyl)quinazolin-3(4H)-yl)propanamido)nicotinate], the EC50 is at most 398 nM.
In the case of `Cc1ccc(NC(=O)C(CC2CCCCC2)n2cnc3ccc(F)cc3c2=O)nc1` (stereo not drawn) [Compound 192, 3-cyclohexyl-2-(6-fluoro-4-oxoquinazolin-3(4H)-yl)-N-(5-methylpyridin-2-yl)propanamide], the EC50 is at least 2000 nM.
For `CC(C)S(=O)(=O)c1ccc2ncn(C(CC3CCCCC3)C(=O)Nc3ccc(Cl)cn3)c(=O)c2c1` (stereo not drawn) [Compound 84, N-(5-Chloro-pyridin-2-yl)-3-cyclohexyl-2-[4-oxo-6-(propane-2-sulfonyl)-4H-quinazolin-3-yl]-propionamide] the value was 501 to 794 nM; for `O=C(NC1CC1)c1ccc2c(=O)n(C(CC3CCCCC3)C(=O)Nc3ccc(Cl)cn3)cnc2c1` (stereo not drawn) [Compound 171, 3-(1-(5-chloropyridin-2-ylamino)-3-cyclohexyl-1-oxopropan-2-yl)-N-cyclopropyl-4-oxo-3,4-dihydroquinazoline-7-carboxamide], at most 398 nM.
As for `COC(=O)c1ccc(NC(=O)C(CC2CCCCC2)n2cnc3c(S(C)(=O)=O)csc3c2=O)nc1` (stereo not drawn) [Compound 102, Methyl 6-(3-cyclohexyl-2-(7-(methylsulfonyl)-4-oxothieno[3,2-d]pyrimidin-3(4H)-yl)propanamido)nicotinate], the EC50 was in the range of 1000 to 1580 nM.
For `COC(=O)c1ccc(NC(=O)C(CC2CCCCC2)n2cnc3cc(S(=O)(=O)C4CCCC4)ccc3c2=O)nc1` (stereo not drawn) [Compound 83, 6-[3-Cyclohexyl-2-(7-cyclopentanesulfonyl-4-oxo-4H-quinazolin-3-yl)-propionylamino]-nicotinic acid methyl ester], the EC50 is at most 398 nM.
The same measure for `CS(=O)(=O)c1cc(Cl)c2ncn(C(CC3CCCCC3)C(=O)Nc3ccc(C(N)=O)cn3)c(=O)c2c1` (stereo not drawn) [Compound 92, 6-[2-(8-Chloro-6-methanesulfonyl-4-oxo-4H-quinazolin-3-yl)-3-cyclohexyl-propionylamino]-nicotinamide]: 501 to 794 nM; for `O=C(NC1CC1)c1ccc2c(=O)n(C(CC3CCCCC3)C(=O)Nc3ncc(Cl)s3)c(=O)[nH]c2c1` (stereo not drawn) [Compound 172, 3-(1-(5-chlorothiazol-2-ylamino)-3-cyclohexyl-1-oxopropan-2-yl)-N-cyclopropyl-2,4-dioxo-1,2,3,4-tetrahydroquinazoline-7-carboxamide]: 501 to 794 nM; for `O=C(Nc1ncc(F)s1)C(CC1CCCCC1)n1c(=O)[nH]c2ccc(F)cc2c1=O` (stereo not drawn) [Compound 57, 3-Cyclohexyl-2-(6-fluoro-2,4-dioxo-1,4-dihydro-2H-quinazolin-3-yl)-N-(5-fluoro-thiazol-2-yl)-propionamide]: at least 2000 nM.
For `CC(C)S(=O)(=O)c1csc2c(=O)n(C(CC3CCCCC3)C(=O)Nc3ccc(F)cn3)cnc12` (stereo not drawn) [Compound 105, 3-Cyclohexyl-N-(5-fluoropyridin-2-yl)-2-(7-(isopropylsulfonyl)-4-oxothieno[3,2-d]pyrimidin-3(4H)-yl)propanamide] the value was 1000 to 1580 nM; for `COc1ccc2ncn(C(CC3CCCCC3)C(=O)Nc3ccc(Cl)cn3)c(=O)c2c1` (stereo not drawn) [Compound 168, N-(5-chloropyridin-2-yl)-3-cyclohexyl-2-(6-methoxy-4-oxoquinazolin-3(4H)-yl)propanamide], 501 to 794 nM.
Regarding `NC(=O)c1ccc(NC(=O)C(CC2CCCCC2)n2cnc3cc(S(=O)(=O)C4CC4)ccc3c2=O)nc1` (stereo not drawn) [Compound 91, 6-[3-Cyclohexyl-2-(7-cyclopropanesulfonyl-4-oxo-4H-quinazolin-3-yl)-propionylamino]-nicotinamide], the EC50 is at most 398 nM.
For `CN(C)CCNC(=O)c1ccc2c(=O)n(C(CC3CCCCC3)C(=O)Nc3ncc(Cl)s3)c(=O)[nH]c2c1` (stereo not drawn) [Compound 177, 3-(1-(5-chlorothiazol-2-ylamino)-3-cyclohexyl-1-oxopropan-2-yl)-N-(2-(dimethylamino)ethyl)-2,4-dioxo-1,2,3,4-tetrahydroquinazoline-7-carboxamide] the value was 501 to 794 nM; for `COC(=O)c1ccc(NC(=O)C(CC2CCCCC2)n2cnc3c(S(=O)(=O)C(C)C)csc3c2=O)nc1` (stereo not drawn) [Compound 104, Methyl 6-(3-cyclohexyl-2-(7-(isopropylsulfonyl)-4-oxothieno[3,2-d]pyrimidin-3(4H)-yl)propanamido)nicotinate], 501 to 794 nM; for `Cc1cnc(NC(=O)C(CC2CCCCC2)n2cnc3cc(S(C)(=O)=O)ccc3c2=O)s1` (stereo not drawn) [Compound 61, 3-Cyclohexyl-2-(7-methanesulfonyl-4-oxo-4H-quinazolin-3-yl)-N-(5-methyl-thiazol-2-yl)-propionamide], at least 2000 nM.
In the case of `O=C(Nc1ccc(F)cn1)C(CC1CCCCC1)n1cnc2ccc(F)cc2c1=O` (stereo not drawn) [Compound 159, 3-cyclohexyl-2-(6-fluoro-4-oxoquinazolin-3(4H)-yl)-N-(5-fluoropyridin-2-yl)propanamide], the EC50 is at least 2000 nM.
For `COC(=O)c1ccc(NC(=O)C(CC2CCCCC2)n2cnc3ccc(F)cc3c2=O)nc1` (stereo not drawn) [Compound 193, methyl 6-(3-cyclohexyl-2-(6-fluoro-4-oxoquinazolin-3(4H)-yl)propanamido)nicotinate], the EC50 was at least 2000 nM.
For `O=C(Nc1ccc2ccccc2n1)C(CC1CCCCC1)n1cnc2ccc(F)cc2c1=O` (stereo not drawn) [Compound 195, 3-cyclohexyl-2-(6-fluoro-4-oxoquinazolin-3(4H)-yl)-N-(quinolin-2-yl)propanamide] the value was 501 to 794 nM.
